{"source": "ChEMBL document CHEMBL1130781", "about": "“Structure-based design and synthesis of a series of hydroxamic acids with a quaternary-hydroxy group in P1 as inhibitors of matrix metalloproteinases” (Bioorg Med Chem Lett, 1998)", "key": {"[1]": {"molecular_target": "T1, Interstitial collagenase (Homo sapiens, UniProt P03956)", "T1 sequence (P03956 whole entry)": "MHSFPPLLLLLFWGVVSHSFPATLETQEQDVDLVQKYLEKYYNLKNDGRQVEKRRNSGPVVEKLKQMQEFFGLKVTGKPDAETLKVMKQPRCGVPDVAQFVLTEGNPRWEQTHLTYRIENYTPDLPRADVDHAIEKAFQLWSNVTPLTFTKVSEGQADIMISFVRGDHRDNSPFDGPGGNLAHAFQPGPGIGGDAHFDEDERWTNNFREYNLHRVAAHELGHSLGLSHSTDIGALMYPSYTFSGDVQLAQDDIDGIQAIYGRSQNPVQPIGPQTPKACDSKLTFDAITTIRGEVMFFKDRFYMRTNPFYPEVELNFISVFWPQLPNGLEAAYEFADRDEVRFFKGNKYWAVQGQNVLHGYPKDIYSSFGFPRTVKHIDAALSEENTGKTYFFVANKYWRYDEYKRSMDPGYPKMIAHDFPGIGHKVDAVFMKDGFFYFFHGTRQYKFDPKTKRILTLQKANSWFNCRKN", "experiment": "Binding affinity was evaluated against matrix metalloprotease-1"}, "[2]": {"molecular_target": "Matrix metalloproteinase-9 (Homo sapiens, UniProt P14780)", "sequence (P14780 whole entry)": "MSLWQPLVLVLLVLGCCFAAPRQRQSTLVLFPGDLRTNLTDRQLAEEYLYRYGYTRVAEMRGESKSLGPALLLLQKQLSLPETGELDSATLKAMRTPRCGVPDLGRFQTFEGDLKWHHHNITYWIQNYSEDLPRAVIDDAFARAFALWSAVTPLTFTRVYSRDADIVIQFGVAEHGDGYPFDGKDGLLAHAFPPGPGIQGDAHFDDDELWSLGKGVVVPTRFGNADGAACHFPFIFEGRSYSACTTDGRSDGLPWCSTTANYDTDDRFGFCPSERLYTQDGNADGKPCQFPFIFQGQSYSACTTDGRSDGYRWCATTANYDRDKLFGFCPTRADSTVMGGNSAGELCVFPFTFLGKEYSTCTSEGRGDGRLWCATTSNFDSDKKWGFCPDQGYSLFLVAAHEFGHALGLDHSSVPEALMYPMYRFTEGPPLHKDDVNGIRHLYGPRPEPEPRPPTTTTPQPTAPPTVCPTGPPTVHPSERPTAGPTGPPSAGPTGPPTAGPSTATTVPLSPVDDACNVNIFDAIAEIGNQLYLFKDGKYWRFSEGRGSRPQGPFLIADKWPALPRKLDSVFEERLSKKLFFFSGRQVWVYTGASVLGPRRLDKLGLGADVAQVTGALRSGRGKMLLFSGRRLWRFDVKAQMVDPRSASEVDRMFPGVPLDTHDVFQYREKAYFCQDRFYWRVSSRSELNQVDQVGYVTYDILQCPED", "experiment": "Binding affinity was evaluated against matrix metalloprotease-9"}, "[3]": {"molecular_target": "Stromelysin-1 (Homo sapiens, UniProt P08254)", "sequence (P08254 whole entry)": "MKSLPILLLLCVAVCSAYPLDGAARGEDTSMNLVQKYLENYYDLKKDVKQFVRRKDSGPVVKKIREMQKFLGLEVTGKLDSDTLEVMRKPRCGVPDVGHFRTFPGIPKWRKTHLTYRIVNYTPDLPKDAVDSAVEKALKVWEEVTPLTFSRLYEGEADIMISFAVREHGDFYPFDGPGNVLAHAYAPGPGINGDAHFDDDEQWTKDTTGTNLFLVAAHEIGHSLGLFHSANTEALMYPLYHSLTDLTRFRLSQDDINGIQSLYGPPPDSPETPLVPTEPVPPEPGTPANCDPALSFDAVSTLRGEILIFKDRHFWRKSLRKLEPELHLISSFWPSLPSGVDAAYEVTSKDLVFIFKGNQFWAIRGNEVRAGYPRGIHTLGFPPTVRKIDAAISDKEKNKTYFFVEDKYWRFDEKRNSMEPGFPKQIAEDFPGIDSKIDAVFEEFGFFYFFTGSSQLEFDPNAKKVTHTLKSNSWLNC", "experiment": "Binding affinity against human matrix metalloprotease-3."}}, "data": [{"smiles": "CNC(=O)[C@H](CCCNS(=O)(=O)N(C)C)NC(=O)[C@H](CCCc1ccccc1)[C@@](C)(O)C(=O)NO", "values": [{"measurement": "Ki", "setting": "[1]", "result": 22, "unit": "nM"}, {"measurement": "Ki", "setting": "[2]", "result": 2, "unit": "nM"}, {"measurement": "Ki", "setting": "[3]", "result": 24, "unit": "nM"}]}, {"smiles": "C[C@@H](NC(=O)[C@H](CCCCN)NC(=O)[C@H](CCCc1ccccc1)[C@@](C)(O)C(=O)NO)c1ccccc1", "values": [{"measurement": "Ki", "setting": "[1]", "result": 282, "unit": "nM"}, {"measurement": "Ki", "setting": "[2]", "result": 149, "unit": "nM"}, {"measurement": "Ki", "setting": "[3]", "result": 168, "unit": "nM"}]}, {"smiles": "C[C@](O)(C(=O)NO)[C@@H](CCCc1ccccc1)C(=O)N[C@@H](CCCCN)C(=O)NCCc1ccccc1", "values": [{"measurement": "Ki", "setting": "[1]", "result": 25, "unit": "nM"}, {"measurement": "Ki", "setting": "[2]", "result": 1, "unit": "nM"}, {"measurement": "Ki", "setting": "[3]", "result": 28, "unit": "nM"}]}, {"smiles": "CNC(=O)[C@H](Cc1ccc(OC)cc1)NC(=O)[C@H](CCc1ccccc1)[C@@](C)(O)C(=O)NO", "values": [{"measurement": "Ki", "setting": "[1]", "result": 33, "unit": "nM"}, {"measurement": "Ki", "setting": "[2]", "result": 2, "unit": "nM"}, {"measurement": "Ki", "setting": "[3]", "result": 25, "unit": "nM"}]}, {"smiles": "CNC(=O)[C@H](CCCN)NC(=O)[C@H](CCCc1ccccc1)[C@@](C)(O)C(=O)NO", "values": [{"measurement": "Ki", "setting": "[1]", "result": 18, "unit": "nM"}, {"measurement": "Ki", "setting": "[2]", "result": 5, "unit": "nM"}, {"measurement": "Ki", "setting": "[3]", "result": 103, "unit": "nM"}]}, {"smiles": "CNC(=O)[C@H](Cc1ccc(OC)cc1)NC(=O)[C@H](CCCc1ccccc1)[C@@](C)(O)C(=O)NO", "values": [{"measurement": "Ki", "setting": "[1]", "result": 2, "unit": "nM"}, {"measurement": "Ki", "setting": "[2]", "result": "< 1", "unit": "nM"}, {"measurement": "Ki", "setting": "[3]", "result": 3, "unit": "nM"}]}, {"smiles": "CNC(=O)[C@@H](NC(=O)[C@H](CCCc1ccccc1)[C@@](C)(O)C(=O)NO)C(C)(C)C", "values": [{"measurement": "Ki", "setting": "[1]", "result": 13, "unit": "nM"}, {"measurement": "Ki", "setting": "[2]", "result": "< 1", "unit": "nM"}, {"measurement": "Ki", "setting": "[3]", "result": 13, "unit": "nM"}]}, {"smiles": "CNC(=O)[C@H](Cc1ccc(OC)cc1)NC(=O)[C@H](CC(C)C)[C@](C)(O)C(=O)NO", "values": [{"measurement": "Ki", "setting": "[3]", "result": "> 10000", "unit": "nM"}]}, {"smiles": "CC(C)(C)OC(=O)[C@H](Cc1ccccc1)NC(=O)[C@H](CCCc1ccccc1)[C@@](C)(O)C(=O)NO", "values": [{"measurement": "Ki", "setting": "[1]", "result": 198, "unit": "nM"}, {"measurement": "Ki", "setting": "[2]", "result": 34, "unit": "nM"}, {"measurement": "Ki", "setting": "[3]", "result": 100, "unit": "nM"}]}, {"smiles": "CNC(=O)[C@H](CCCNC(=O)OC(C)(C)C)NC(=O)[C@H](CCCc1ccccc1)[C@@](C)(O)C(=O)NO", "values": [{"measurement": "Ki", "setting": "[1]", "result": 16, "unit": "nM"}, {"measurement": "Ki", "setting": "[2]", "result": 2, "unit": "nM"}, {"measurement": "Ki", "setting": "[3]", "result": 13, "unit": "nM"}]}, {"smiles": "CNC(=O)[C@H](Cc1ccc(OC)cc1)NC(=O)[C@H](CC(C)C)[C@@](C)(O)C(=O)NO", "values": [{"measurement": "Ki", "setting": "[1]", "result": 0.6, "unit": "nM"}, {"measurement": "Ki", "setting": "[2]", "result": "< 1", "unit": "nM"}, {"measurement": "Ki", "setting": "[3]", "result": 13, "unit": "nM"}]}, {"smiles": "C[C@](O)(C(=O)NO)[C@@H](CCCc1ccccc1)C(=O)N[C@@H](Cc1ccccc1)C(=O)O", "values": [{"measurement": "Ki", "setting": "[1]", "result": 167, "unit": "nM"}, {"measurement": "Ki", "setting": "[2]", "result": "> 213", "unit": "nM"}, {"measurement": "Ki", "setting": "[3]", "result": 25, "unit": "nM"}]}, {"smiles": "CNC(=O)[C@H](Cc1ccc(OC)cc1)NC(=O)[C@H](CCc1ccccc1)[C@](C)(O)C(=O)NO", "values": [{"measurement": "Ki", "setting": "[3]", "result": "> 10000", "unit": "nM"}]}, {"smiles": "CNC(=O)[C@H](Cc1ccc(OC)cc1)NC(=O)[C@H](Cc1ccccc1)[C@](C)(O)C(=O)NO", "values": [{"measurement": "Ki", "setting": "[3]", "result": "> 10000", "unit": "nM"}]}, {"smiles": "CNC(=O)[C@H](CCCNC(=O)N1CCOCC1)NC(=O)[C@H](CCCc1ccccc1)[C@@](C)(O)C(=O)NO", "values": [{"measurement": "Ki", "setting": "[1]", "result": 53, "unit": "nM"}, {"measurement": "Ki", "setting": "[2]", "result": 4, "unit": "nM"}, {"measurement": "Ki", "setting": "[3]", "result": 70, "unit": "nM"}]}, {"smiles": "CNC(=O)[C@H](CCCCN)NC(=O)[C@H](CCCc1ccccc1)[C@@](C)(O)C(=O)NO", "values": [{"measurement": "Ki", "setting": "[1]", "result": 15, "unit": "nM"}, {"measurement": "Ki", "setting": "[2]", "result": "< 1", "unit": "nM"}, {"measurement": "Ki", "setting": "[3]", "result": 32, "unit": "nM"}]}, {"smiles": "CNC(=O)[C@H](Cc1ccc(OC)cc1)NC(=O)[C@H](Cc1ccccc1)[C@@](C)(O)C(=O)NO", "values": [{"measurement": "Ki", "setting": "[1]", "result": 85, "unit": "nM"}, {"measurement": "Ki", "setting": "[2]", "result": 5, "unit": "nM"}, {"measurement": "Ki", "setting": "[3]", "result": 526, "unit": "nM"}]}]}
